For data set [1] the following is noted: comparison value, source not given; cited from earlier work.
The next data set concerns the target KLK4 (Homo sapiens, UniProt Q9Y5K2). Description: Kinetic studies of para-nitroanilide substrates with KLK4. Type of data set: biochemical. Also on record: pro-region of PSA (KLK3), replacing the native KLK4 pro-region (only if the E. coli preparation was used) (N, cleaved yes); made in house. To be noted: relative to the parent substrate (Bz-FVR-pNA or FVQR-pNA). The procedure: Human recombinant KLK4 was expressed in E. coli using a previously described chimeric KLK4 plasmid construct where the native pro-region was replaced with the pro-region of PSA, enabling autoactivation. Protein was expressed as inclusion bodies which were isolated and solubilised as described previously to yield 90% pure KLK4. Protein refolding was performed by dilution into 100 volumes of refolding buffer I (2 M urea, 0.1M NaCl, 5 mM GSH, 0.5 mM GSSG, 10 mM benzamidine, 50 mM tris HCl pH 8.0, 2 mM CaCl2) over 44 hours before further dilution into 3 volumes refolding buffer II (refolding buffer I with 0.5 M urea 0.5 mM GSH, 0.05 mM GSSG, 2 mM CaCl2) over another 24 hours. Dialysis was performed as previously described (with additional 2 mM CaCl2 to reduce aggregation) before concentration using UNO sphere Q (Biorad) eluting with tris buffered saline (pH 7.5)/2 mM CaCl2. […]
Kinetic Studies Active site titration was carried out according to Beynon et al., replacing α1-proteinase inhibitor with soybean trypsin inhibitor. Enzymatic activity assays were performed with 4.9 nM KLK4 and substrate concentrations in the range of 0-600 μM in 300 μL of assay buffer with hydrolysis monitored over 5 minutes as described for the substrate screen. […]

Peptide text beside a SMILES is read from it. * marks the point of attachment. pNA = O=[N+]([O-])c1ccc(N*)cc1

Consider two molecules from patent US20110172163A1, “Novel Protease Inhibitors” (QUEENSLAND UNIVERSITY OF TECHNOLOGY, priority 2008, published 2011).

Sequence of KLK4 (Q9Y5K2 31-254): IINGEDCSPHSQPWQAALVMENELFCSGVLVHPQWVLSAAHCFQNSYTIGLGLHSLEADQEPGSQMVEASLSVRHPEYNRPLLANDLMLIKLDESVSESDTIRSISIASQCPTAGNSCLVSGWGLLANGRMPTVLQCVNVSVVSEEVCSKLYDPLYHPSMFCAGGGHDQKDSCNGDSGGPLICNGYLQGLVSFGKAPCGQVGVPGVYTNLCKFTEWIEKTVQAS

Regarding `CC(C)c1nc(CN(C)C(=O)N[C@H](C(=O)N[C@@H](Cc2ccccc2)C[C@H](O)[C@H](Cc2ccccc2)NC(=O)OCc2cncs2)C(C)C)cs1` [ritonavir], the half life in data set [1] was 3.8 h.

Turning to `CC(=O)N[C@@H](Cc1ccccc1)C(=O)N[C@H](C(=O)N[C@@H](CCCNC(=N)N)C(=O)Nc1ccc([N+](=O)[O-])cc1)C(C)C` [Ac-FVR-pNA] (Ac-Phe-Val-Arg-pNA), the reduction of kcat at KLK4 is on record as 47%.
